For the test, the system named is OvCAR3 cells. Nature of the test: Cellular proliferation / Cytotoxicity assay (Alamar Blue). Type of test: cell-based. Particulars: Homo sapiens, OVCAR-3, 48h incubation, Alamar Blue (Resazurin) cell viability, read-out: Anti-proliferative / Cytotoxic activity (OvCAR3 cells). The method, then: The anti-proliferative activity of the compounds as described herein, is evaluated using the OvCAR3, HCT116 and A549 cell lines and the Alamar Blue (Resazurin) cell viability assay (O'Brien et al. Eur J Biochem 267, 5421-5426, 2000). Resazurin is reduced to the fluorescent resorufin by cellular dehydrogenase activity, correlating with viable, proliferating cells. Test compounds are dissolved as 10 mM solutions in DMSO and subsequently diluted. Cells like HCT116 or A549 cells were seeded into 96 well flat bottom plates at a density of 10000 cells/well (OvCAR3 cells), 1000 cells/well (HCT116 cells) or 2000 cells/well (A549 cells) in a volume of 200 µl/well. 24 hours after seeding, 1 µl each of the compound dilutions are added into each well of the 96 well plates. Each compound dilution is tested as at least as duplicates. Wells containing untreated control cells were filled with 200 µl DMEM (Dulbecco's Modified Eagle Medium) containing 0.5vol% v:v DMSO. The cells are then incubated with the substances for 48h at 37°C in a humidified atmosphere containing 5vol% CO2. To determine the viability of the cells, 20 µl of a Resazurin solution (90mg / l) are added. After 4h incubation at 37°C, the fluorescence is measured by extinction at ? = 544 nm and an emission of ? = 590 nm (Wallac Victor2; Perkin Elmer, USA). For the calculation of the cell viability, the emission value from untreated cells is set as 100% viability and the fluorescence intensity of treated cells are set in relation to the values of untreated cells. Viabilities are expressed as % values. The corresponding IC50 values of the compounds for cytotoxic activity are determined from the concentration-effect curves by means of non-linear regression. The analysis of the data is performed using a biostatistical program (GraphPad Prism, USA). Representative IC50 values for anti-proliferative / cytotoxic potency determined in the aforementioned assay follow from the following table, in which the numbers of the compound correspond to the numbers of the examples.
In general terms: Alamar Blue is a resazurin reagent that responds to reducing activity.
With `CNc1c(-c2ccccc2)c(-c2ccc(CN3CCC(c4n[nH]c(-c5ccccn5)n4)CC3)cc2)nc2nccn12` [Example 10, N-methyl-6-phenyl-7-(4-{[4-(5-pyridin-2-yl-1,2,4-triazol-3-yl)piperidin-1-yl]methyl}phenyl)imidazo[1,2-a]pyrimidin-5-amine], the IC50 is greater than 1000 nM.

`c1ccc(-c2cn3ccnc3nc2-c2ccc(CN3CCC(c4n[nH]c(-c5ncccn5)n4)CC3)cc2)cc1` [Example 18, 6-phenyl-7-(4-{[4-(5-pyrimidin-2-yl-1,2,4-triazol-3-yl)piperidin-1-yl]methyl}phenyl)imidazo[1,2-a]pyrimidine]: the IC50 is greater than 1000 nM.

In the case of `C#Cc1cnc2nc(-c3ccc(CN4CCC(c5n[nH]c(-c6ccccn6)n5)CC4)cc3)c(-c3ccccc3)cn12` [Example 13, 3-ethynyl-6-phenyl-7-(4-{[4-(5-pyridin-2-yl-1,2,4-triazol-3-yl)piperidin-1-yl]methyl}phenyl)imidazo[1,2-a]pyrimidine], the IC50 is less than 1000 nM.

For the compound `c1ccc(-c2cn3nccc3nc2-c2ccc(CN3CCC(c4n[nH]c(-c5ccccn5)n4)CC3)cc2)cc1` [Example 19, 6-phenyl-5-(4-{[4-(5-pyridin-2-yl-1,2,4-triazol-3-yl)piperidin-1-yl]methyl}phenyl)pyrazolo[1,5-a]pyrimidine], the IC50 is less than 1000 nM.

`c1ccc(-c2cn3nc(C4CC4)nc3nc2-c2ccc(CN3CCC(c4n[nH]c(-c5ccccn5)n4)CC3)cc2)cc1` [Example 4, 2-cyclopropyl-6-phenyl-5-(4-{[4-(5-pyridin-2-yl-1,2,4-triazol-3-yl)piperidin-1-yl]methyl}phenyl)[1,2,4]triazolo[1,5-a]pyrimidine]: the IC50 is less than 1000 nM.

For the compound `c1ccc(-c2cn3ccnc3nc2-c2ccc(CN3CCC(c4n[nH]c(-c5ccncc5)n4)CC3)cc2)cc1` [Example 6, 6-phenyl-7-(4-{[4-(5-pyridin-4-yl-1,2,4-triazol-3-yl)piperidin-1-yl]methyl}phenyl)imidazo[1,2-a]pyrimidine], the IC50 is greater than 1000 nM.

Regarding `c1ccc(-c2cn3ncnc3nc2-c2ccc(CN3CCC(c4n[nH]c(-c5ccccn5)n4)CC3)cc2)cc1` [Example 2, 6-phenyl-5-(4-([4-(5-pyridin-2-yl-1,2,4-triazol-3-yl)piperidin-1-yl]methyl}phenyl)[1,2,4]triazolo[1,5-a]pyrimidine], the IC50 was greater than 1000 nM.

For `c1ccc(-c2cn3ccnc3nc2-c2ccc(CN3CCC(c4n[nH]c(-c5cnccn5)n4)CC3)cc2)cc1` [Example 21, 6-phenyl-7-(4-{[4-(5-pyrazin-2-yl-1,2,4-triazol-3-yl)piperidin-1-yl]methyl}phenyl)imidazo[1,2-a]pyrimidine], the IC50 was greater than 1000 nM.

For the compound `Cc1cnc2nc(-c3ccc(CN4CCC(c5n[nH]c(-c6ccccn6)n5)CC4)cc3)c(-c3ccccc3)cn12` [Example 14, 3-methyl-6-phenyl-7-(4-{[4-(5-pyridin-2-yl-1,2,4-triazol-3-yl)piperidin-1-yl]methyl}phenyl)imidazo[1,2-a]pyrimidine], the IC50 is less than 1000 nM.

Regarding `Brc1cnc2nc(-c3ccc(CN4CCC(c5n[nH]c(-c6ccccn6)n5)CC4)cc3)c(-c3ccccc3)cn12` [Example 11, 3-bromo-6-phenyl-7-(4-{[4-(5-pyridin-2-yl-1,2,4-triazol-3-yl)piperidin-1-yl]methyl}phenyl)imidazo[1,2-a]pyrimidine], the IC50 is less than 1000 nM.

Regarding `c1ccc(-c2cn3nc(C4CCC4)nc3nc2-c2ccc(CN3CCC(c4n[nH]c(-c5ccccn5)n4)CC3)cc2)cc1` [Example 7, 2-cyclobutyl-6-phenyl-5-(4-{[4-(5-pyridin-2-yl-1,2,4-triazol-3-yl)piperidin-1-yl]methyl}phenyl)[1,2,4]triazolo[1,5-a]pyrimidine], the IC50 was less than 1000 nM.

Turning to `c1ccc(-c2cn3ccnc3nc2-c2ccc(CN3CCC(n4cnc(-c5ccccn5)c4)CC3)cc2)cc1` [Example 20, 6-phenyl-7-(4-{[4-(4-pyridin-2-yl-imidazol-1-yl)piperidin-1-yl]methyl}phenyl)imidazo[1,2-a]pyrimidine], the IC50 is greater than 1000 nM.

Consider `C=Cc1cnc2nc(-c3ccc(CN4CCC(c5n[nH]c(-c6ccccn6)n5)CC4)cc3)c(-c3ccccc3)cn12` [Example 15, 6-phenyl-7-(4-{[4-(5-pyridin-2-yl-1,2,4-triazol-3-yl)piperidin-1-yl]methyl}phenyl)-3-vinylimidazo[1,2-a]pyrimidine], for which the IC50 was less than 1000 nM.

`Cc1nc2nc(-c3ccc(CN4CCC(c5n[nH]c(-c6ccccn6)n5)CC4)cc3)c(-c3ccccc3)cn2n1` [Example 3, 2-methyl-6-phenyl-5-(4-{[4-(5-pyridin-2-yl-1,2,4-triazol-3-yl)piperidin-1-yl]methyl}phenyl)[1,2,4]triazolo[1,5-a]pyrimidine]: the IC50 is less than 1000 nM.

For the compound `N#Cc1cnc2nc(-c3ccc(CN4CCC(c5n[nH]c(-c6ccccn6)n5)CC4)cc3)c(-c3ccccc3)cn12` [Example 8, 6-phenyl-7-(4-{[4-(5-pyridin-2-yl-1,2,4-triazol-3-yl)piperidin-1-yl]methyl}phenyl)imidazo[1,2-a]pyrimidine-3-carbonitrile], the IC50 is greater than 1000 nM.

`Fc1cnc2nc(-c3ccc(CN4CCC(c5n[nH]c(-c6ccccn6)n5)CC4)cc3)c(-c3ccccc3)cn12` [Example 9, 3-fluoro-6-phenyl-7-(4-{[4-(5-pyridin-2-yl-1H-1,2,4-triazol-3-yl)piperidin-1-yl]methyl}phenyl)imidazo[1,2-a]pyrimidine]: the IC50 is less than 1000 nM.

As to `CCc1cnc2nc(-c3ccc(CN4CCC(c5n[nH]c(-c6ccccn6)n5)CC4)cc3)c(-c3ccccc3)cn12` [Example 22, 3-ethyl-6-phenyl-7-(4-{[4-(5-pyridin-2-yl-1,2,4-triazol-3-yl)piperidin-1-yl]methyl}phenyl)imidazo[1,2-a]pyrimidine], the IC50 is less than 1000 nM.

Turning to `Clc1cnc2nc(-c3ccc(CN4CCC(c5n[nH]c(-c6ccccn6)n5)CC4)cc3)c(-c3ccccc3)cn12` [Example 12, 3-chloro-6-phenyl-7-(4-{[4-(5-pyridin-2-yl-1,2,4-triazol-3-yl)piperidin-1-yl]methyl}phenyl)imidazo[1,2-a]pyrimidine], the IC50 is less than 1000 nM.

For `c1ccc(-c2cn3ccnc3nc2-c2ccc(CN3CCC(c4cc(-c5ccccn5)n[nH]4)CC3)cc2)cc1` [Example 5, 6-phenyl-7-(4-{[4-(3-pyridin-2-yl-pyrazol-5-yl)piperidin-1-yl]methyl}phenyl)imidazo[1,2-a]pyrimidine], the IC50 was greater than 1000 nM.

Consider `c1ccc(-c2cn3ccnc3nc2-c2ccc(CN3CCC(c4nc(-c5ccccn5)n[nH]4)CC3)cc2)cc1` [Example 1, 6-phenyl-7-(4-{[4-(3-pyridin-2-yl-1,2,4-triazol-5-yl)piperidin-1-yl]methyl}phenyl)imidazo[1,2-a]pyrimidine], for which the IC50 was greater than 1000 nM.

With `CCc1cn2cc(-c3ccccc3)c(-c3ccc(CN4CCC(c5n[nH]c(-c6ccccn6)n5)CC4)cc3)nc2n1` [Example 17, 2-ethyl-6-phenyl-7-(4-{[4-(5-pyridin-2-yl-1,2,4-triazol-3-yl)piperidin-1-yl]methyl}phenyl)imidazo[1,2-a]pyrimidine], the IC50 was less than 1000 nM.

Values taken from patent EP2050748A1, “Novel fused pyrimidines” (Bayer Schering Pharma Aktiengesellschaft, priority 2007, dated 2009).
